Measurements: patent publication US20030215462A1, “Use of UGT inhibitors to increase bioavailability” (priority 2001, published 2003)

Key:
UGT1A3 = target: T1, UGT1A3 (Homo sapiens, UniProt P35503); experiment: Inhibition of raloxifene glucuronidation by recombinant UGT1A3 Supersomes; conditions: human; for activity at 15 min, 10 µM: inhibitor 10 μM; for activity at 15 min, 25 µM: inhibitor 25 μM; for activity at 15 min, 50 µM: inhibitor 50 μM
T1 sequence (P35503 29-534): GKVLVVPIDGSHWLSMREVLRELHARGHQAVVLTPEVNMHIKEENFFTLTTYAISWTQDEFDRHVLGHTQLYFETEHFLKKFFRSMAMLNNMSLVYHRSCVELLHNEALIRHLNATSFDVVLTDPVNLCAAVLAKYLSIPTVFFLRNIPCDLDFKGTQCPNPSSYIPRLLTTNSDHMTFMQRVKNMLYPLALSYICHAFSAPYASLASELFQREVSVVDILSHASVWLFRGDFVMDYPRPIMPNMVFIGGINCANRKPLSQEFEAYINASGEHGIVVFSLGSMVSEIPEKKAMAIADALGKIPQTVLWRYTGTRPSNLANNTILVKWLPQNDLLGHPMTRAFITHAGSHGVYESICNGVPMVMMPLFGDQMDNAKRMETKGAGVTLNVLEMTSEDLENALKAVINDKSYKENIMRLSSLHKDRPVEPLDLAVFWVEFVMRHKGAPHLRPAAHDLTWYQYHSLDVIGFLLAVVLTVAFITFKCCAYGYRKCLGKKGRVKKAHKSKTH
Protocol: (§1) Compounds were eluted using a binary solvent gradient system. Solvent A was water brought to pH 8 with NH4OH. Solvent B was methanol. Solvent flow rate was 1 ml/min and the column temperature was maintained at 50° C. Detection was at 280 nm. […] The system was then returned to the initial conditions and equilibrated for 3 min.

UGT1A9 = target: T2, UGT1A9 (Homo sapiens, UniProt O60656); experiment: Inhibition of raloxifene glucuronidation by recombinant UGT1A9 Supersomes; conditions: for Inhibition of raloxifene glucuronidation, UGT1A9, first line per inhibitor (G1): first line (G1, metabolite not given); for Inhibition of raloxifene glucuronidation, UGT1A9, first line per inhibitor (G1) / Inhibition of raloxifene glucuronidation, UGT1A9, second line per inhibitor (G2): raloxifene 50 μM, 250 μg/ml Supersomes, 1 mM UDPGA, 15 min; for activity at 15 min, 5 µM / activity at 15 min, 10 µM / activity at 15 min, 25 µM / activity at 15 min, 50 µM: human, Supersomes with recombinant human UGT1A9, pH 7.5, probe raloxifene 50 μM; for Inhibition of raloxifene glucuronidation, UGT1A9, second line per inhibitor (G2): second line (G2, metabolite not given)
T2 sequence (O60656 26-530): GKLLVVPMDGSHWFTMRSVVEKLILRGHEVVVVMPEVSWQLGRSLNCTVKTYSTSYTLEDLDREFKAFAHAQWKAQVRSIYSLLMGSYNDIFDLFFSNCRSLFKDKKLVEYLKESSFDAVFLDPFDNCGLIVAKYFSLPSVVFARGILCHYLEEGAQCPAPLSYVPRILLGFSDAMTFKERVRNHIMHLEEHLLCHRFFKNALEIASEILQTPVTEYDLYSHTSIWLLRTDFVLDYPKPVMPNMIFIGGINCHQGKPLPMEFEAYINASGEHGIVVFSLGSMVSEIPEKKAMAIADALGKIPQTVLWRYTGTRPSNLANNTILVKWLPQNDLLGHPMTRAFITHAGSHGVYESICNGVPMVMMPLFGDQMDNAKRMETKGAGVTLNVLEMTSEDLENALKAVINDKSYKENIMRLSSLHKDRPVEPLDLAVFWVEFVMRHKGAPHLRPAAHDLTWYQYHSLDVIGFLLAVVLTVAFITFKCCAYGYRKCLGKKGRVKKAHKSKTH

[1] = system: UGT enzymes of human liver microsomes; experiment: Inhibition of raloxifene glucuronidation (G1, G2) in human liver microsomes; assay type: biochemical
From the text: Compounds were eluted using a binary solvent gradient system. […] Solvent B was methanol. […] Detection was at 280 nm.

[2] = system: UGT enzymes of pooled human jejunum microsomes; experiment: Inhibition of 2ME2 glucuronidation (MG1) in pooled human jejunum microsomes; assay type: biochemical; conditions: jejunum HJ61, 2ME2 50 μM
From the text: Compounds were eluted using a binary solvent gradient system where solvent A was dilute phosphoric acid (pH 3) and solvent B was 80:20 acetonitrile-methanol. […] Detection was at 280 nm.

UGT1A10 = target: T3, UGT1A10 (Homo sapiens, UniProt Q9HAW8); experiment: Inhibition of raloxifene glucuronidation by recombinant UGT1A10 Bacculosomes; conditions: human, Bacculosomes with recombinant human UGT1A10, pH 7.5, probe raloxifene 50 μM; for activity at 15 min, 25 µM: inhibitor 25 μM; for activity at 15 min, 50 µM: inhibitor 50 μM
T3 sequence (Q9HAW8 26-530): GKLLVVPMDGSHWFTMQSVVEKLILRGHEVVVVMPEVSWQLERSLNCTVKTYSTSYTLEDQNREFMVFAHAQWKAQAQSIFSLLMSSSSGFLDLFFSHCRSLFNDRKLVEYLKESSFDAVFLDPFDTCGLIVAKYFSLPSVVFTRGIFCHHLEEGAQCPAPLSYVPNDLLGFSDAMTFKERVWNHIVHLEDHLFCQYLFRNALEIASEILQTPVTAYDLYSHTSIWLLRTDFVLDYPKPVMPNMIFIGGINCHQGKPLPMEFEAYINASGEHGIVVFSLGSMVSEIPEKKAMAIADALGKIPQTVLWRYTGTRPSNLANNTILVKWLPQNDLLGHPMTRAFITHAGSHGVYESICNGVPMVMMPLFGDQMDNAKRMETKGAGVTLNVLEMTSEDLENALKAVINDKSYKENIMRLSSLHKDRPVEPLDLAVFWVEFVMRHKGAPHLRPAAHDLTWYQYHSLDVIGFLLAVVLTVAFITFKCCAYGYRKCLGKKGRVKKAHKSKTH
Protocol: as §1

[3] = Supersomes with recombinant human UGT1A3, pH 7.5, probe raloxifene 50 μM, formation of glucuronide G1, % of control metabolism, raloxifene G1, UGT1A3
[4] = Supersomes with recombinant human UGT1A3, pH 7.5, probe raloxifene 50 μM, formation of glucuronide G2, % of control metabolism, raloxifene G2, UGT1A3
[5] = recombinant UGT1A3 Supersomes, pH 7.5, probe raloxifene 50 μM (formation of glucuronide G1), Inhibition of raloxifene glucuronidation, G1, UGT1A3, G1, raloxifene 50 μM, 250 μg/ml Supersomes, 1 mM UDPGA, 15 min
[6] = recombinant UGT1A3 Supersomes, pH 7.5, probe raloxifene 50 μM (formation of glucuronide G2), Inhibition of raloxifene glucuronidation, G2, UGT1A3, G2, raloxifene 50 μM, 250 μg/ml Supersomes, 1 mM UDPGA, 15 min
[7] = liver lot 032101, inhibitor 10 μM
[8] = liver lot 062101, inhibitor 10 μM
[9] = liver lot 083000, inhibitor 10 μM
[10] = raloxifene 50 μM, inhibitor 10 μM
[11] = raloxifene 50 μM, inhibitor 25 μM
[12] = raloxifene 50 μM, inhibitor 50 μM
[13] = raloxifene 50 μM, inhibitor 100 μM
[14] = formation of glucuronide G1, % of control metabolism, raloxifene G1, UGT1A10
[15] = formation of glucuronide G2, % of control metabolism, raloxifene G2, UGT1A10

Compound: O=C(OC[C@H]1O[C@@H](OC(=O)c2cc(O)c(O)c(OC(=O)c3cc(O)c(O)c(O)c3)c2)[C@H](OC(=O)c2cc(O)c(O)c(OC(=O)c3cc(O)c(O)c(O)c3)c2)[C@@H](OC(=O)c2cc(O)c(O)c(OC(=O)c3cc(O)c(O)c(O)c3)c2)[C@@H]1OC(=O)c1cc(O)c(O)c(OC(=O)c2cc(O)c(O)c(O)c2)c1)c1cc(O)c(O)c(OC(=O)c2cc(O)c(O)c(O)c2)c1 [Tannic acid]
- activity at 15 min, 10 µM (UGT1A3; [3]): 48%
- activity at 15 min, 25 µM (UGT1A3; [3]): 25%
- activity at 15 min, 50 µM (UGT1A3; [3]): 3%
- activity at 15 min, 10 µM (UGT1A3; [4]): 64%
- activity at 15 min, 25 µM (UGT1A3; [4]): 38%
- activity at 15 min, 50 µM (UGT1A3; [4]): 5%
- activity at 15 min, 10 µM (UGT1A3; [5]): 48%
- activity at 15 min, 25 µM (UGT1A3; [5]): 25%
- activity at 15 min, 50 µM (UGT1A3; [5]): 3%
- activity at 15 min, 10 µM (UGT1A3; [6]): 64%
- activity at 15 min, 25 µM (UGT1A3; [6]): 38%
- activity at 15 min, 50 µM (UGT1A3; [6]): 5%
- Inhibition of raloxifene glucuronidation, UGT1A9, first line per inhibitor (G1) (UGT1A9; inhibitor 5 μM): 53 (2)
- Inhibition of raloxifene glucuronidation, UGT1A9, first line per inhibitor (G1) (UGT1A9; inhibitor 50 μM): 17 (0)
- activity at 15 min, 5 µM (UGT1A9; formation of glucuronide G1, % of control metabolism, raloxifene G1, UGT1A9, inhibitor 5 μM): 53%
- activity at 15 min, 10 µM (UGT1A9; formation of glucuronide G1, % of control metabolism, raloxifene G1, UGT1A9, inhibitor 10 μM): 44%
- activity at 15 min, 25 µM (UGT1A9; formation of glucuronide G1, % of control metabolism, raloxifene G1, UGT1A9, inhibitor 25 μM): 21%
- activity at 15 min, 50 µM (UGT1A9; formation of glucuronide G1, % of control metabolism, raloxifene G1, UGT1A9, inhibitor 50 μM): 17%
- activity at 15 min, 5 µM (UGT1A9; formation of glucuronide G2, % of control metabolism, raloxifene G2, UGT1A9, inhibitor 5 μM): 76%
- activity at 15 min, 10 µM (UGT1A9; formation of glucuronide G2, % of control metabolism, raloxifene G2, UGT1A9, inhibitor 10 μM): 45%
- activity at 15 min, 25 µM (UGT1A9; formation of glucuronide G2, % of control metabolism, raloxifene G2, UGT1A9, inhibitor 25 μM): 19%
- activity at 15 min, 50 µM (UGT1A9; formation of glucuronide G2, % of control metabolism, raloxifene G2, UGT1A9, inhibitor 50 μM): 42%
- Inhibition of raloxifene glucuronidation, UGT1A9, second line per inhibitor (G2) (UGT1A9; inhibitor 5 μM): 76 (3)
- Inhibition of raloxifene glucuronidation, UGT1A9, second line per inhibitor (G2) (UGT1A9; inhibitor 10 μM): 45 (1)
- Inhibition of raloxifene glucuronidation, UGT1A9, second line per inhibitor (G2) (UGT1A9; inhibitor 25 μM): 19 (3)
- Inhibition of raloxifene glucuronidation, UGT1A9, second line per inhibitor (G2) (UGT1A9; inhibitor 50 μM): 42 (5)
- % of control metabolism, raloxifene G1 [1, 7]: 51 (4) %
- % of control metabolism, raloxifene G2 [1, 7]: 59 (3) %
- % of control metabolism, raloxifene G1 [1, 8]: 61 (4) %
- % of control metabolism, raloxifene G2 [1, 8]: 54 (4) %
- % of control metabolism, raloxifene G1 [1, 9]: 27 (1) %
- % of control metabolism, raloxifene G2 [1, 9]: 30 (1) %
- % of control metabolism, raloxifene G1 [1, 10]: 27 (1) %
- % of control metabolism, raloxifene G2 [1, 10]: 30 (1) %
- % of control metabolism, raloxifene G1 [1, 11]: 7 (1) %
- % of control metabolism, raloxifene G2 [1, 11]: 12 (2) %
- % of control metabolism, raloxifene G1 [1, 12]: 0 (0), 0 (0) %
- % of control metabolism, raloxifene G2 [1, 12]: 0 (0), 0 (0) %
- % of control metabolism, raloxifene G1 [1, 13]: 0 (0), 0 (0) %
- % of control metabolism, raloxifene G2 [1, 13]: 0 (0), 0 (0) %
- residual metabolism (% of control), 2ME2 MG1 ([2]; inhibitor 2 μM): 63 (1) %
- residual metabolism (% of control), 2ME2 MG1 ([2]; inhibitor 5 μM): 49 (1) %
- residual metabolism (% of control), 2ME2 MG1 ([2]; inhibitor 10 μM): 42 (1) %
- residual metabolism (% of control), 2ME2 MG1 ([2]; inhibitor 25 μM): 5 (0) %
- residual metabolism (% of control), 2ME2 MG1 ([2]; inhibitor 50 μM): <LOQ
- activity at 15 min, 25 µM (UGT1A10; [14]): 56%
- activity at 15 min, 50 µM (UGT1A10; [14]): 10%
- activity at 15 min, 25 µM (UGT1A10; [15]): 53%
- activity at 15 min, 50 µM (UGT1A10; [15]): 8%
